Results reported in US20260294922A1, “Inhibitors of JUN N-Terminal Kinases (JNK1, JNK2, and/or JNK3) and Mitogen-Activated Protein Kinases (MAPK8, MAPK9, and/or MAPK10) and Methods of Using Same” (Baylor College of Medicine, priority 2023, published 2026).
Converted amounts (≈) assume the structure as drawn. “Also recorded” adds a separate entry of the source.

Columns and labels:
MEK4 = molecular target: T1, MEK4 (Homo sapiens, UniProt P45985); experiment: ThermoFisher SelectScreen, MEK4; format: binding
T1 construct: purchased ThermoFisher (SelectScreen)
T1 sequence (P45985 1-399): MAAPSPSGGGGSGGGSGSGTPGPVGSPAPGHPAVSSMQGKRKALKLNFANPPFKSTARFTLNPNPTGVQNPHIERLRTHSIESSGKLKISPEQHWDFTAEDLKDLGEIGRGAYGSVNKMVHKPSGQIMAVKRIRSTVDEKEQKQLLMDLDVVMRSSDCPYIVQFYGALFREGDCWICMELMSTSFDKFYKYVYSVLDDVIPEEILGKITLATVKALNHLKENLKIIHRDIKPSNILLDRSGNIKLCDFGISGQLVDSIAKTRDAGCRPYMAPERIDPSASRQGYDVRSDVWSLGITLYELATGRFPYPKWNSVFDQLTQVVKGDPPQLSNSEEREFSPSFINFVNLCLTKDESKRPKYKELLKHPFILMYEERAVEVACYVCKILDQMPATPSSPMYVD

hVPS34 = molecular target: T2, hVPS34 (Homo sapiens, UniProt Q8NEB9); experiment: ThermoFisher SelectScreen, hVPS34; format: binding; details: Table 4
T2 construct: purchased ThermoFisher (SelectScreen, outsourced service)
Method: (§1) To mitigate violation of the linear initial velocity principle, which is a problem in end-point assays when doing dose-responses, the enzyme concentration was carefully optimized, in a total assay volume of 25 μL. The assay was performed using 10 μM ATP, 0.02% Tween-20, kinase buffer from Cell Signaling (#9802) in white 384-well plates. The kinase reaction was done for 30 or 60 min at 30° C., and detection of leftover ATP was measured according to Promega's protocol. […] Fractional activities were obtained from normalized data. Non-linear regression (GraphPad Prism7) and a modified Morrison equation for tight binding was used to determine apparent Ki values for inhibitors, assuming no particular mode of inhibition. An orthogonal binding assay (LanthaScreen) was outsourced to ThermoFisher Scientific's SelectScreen Services to determine IC50 values.
One of the earliest compounds to be synthesized with favorable enzymatic activity towards JNK1 and JNK3 was CDD-2346. A KINOMEscan was performed for CDD-2346 to establish whether the selectivity of this chemical scaffold was suitable or required optimization. […] To confirm that the activity against each kinase was a true result and not a false positive, CDD-2346 was evaluated in kinase assays using ThermoFisher SelectScreen platform. The results from these assays are provided herein (Table 4). The important innovative steps described are the optimization of selectivity a) for JNK isoforms; b) for kinases considered “in-pathway”; and c) to avoid kinases considered “out-of-pathway”.

CSNK1E = molecular target: T3, CSNK1E (Homo sapiens, UniProt P49674); experiment: ThermoFisher SelectScreen, CSNK1E; format: binding
T3 construct: purchased ThermoFisher (SelectScreen)

JNK2 [1] = molecular target: T4, JNK2 (Homo sapiens, UniProt P45984); experiment: JNK2 kinase (intrinsic ATPase, Kinase-Glo) assay; format: biochemical; details: Table 3a; read-out: Kd JNK2
[2] = In vitro metabolism in mouse liver microsomes; details: mouse, microsomes
Method: (§2) The target product profile seeks to deliver JNK inhibitor as a once daily oral administration. To prioritize compounds for further development, in vitro metabolism of several CDD JNK inhibitors were determined to approximate the plasma half-life and the rate of metabolism of the compounds in vivo.

[3] = In vitro metabolism in human liver microsomes; details: human, microsomes
Method: as §2

JNK3 [4] = molecular target: T5, JNK3 (Homo sapiens, UniProt P53779); experiment: ThermoFisher SelectScreen, JNK3; format: binding
JNK2 [5] = molecular target: T4, JNK2; experiment: Promega NanoBRET intracellular target engagement (tracer K10 displacement), JNK2; format: cell-based
JNK1 [6] = molecular target: T6, JNK1 (Homo sapiens, UniProt P45983); experiment: Promega NanoBRET intracellular target engagement (tracer K10 displacement), JNK1; format: cell-based
JNK3 [7] = molecular target: T5, JNK3; experiment: Promega NanoBRET intracellular target engagement (tracer K10 displacement), JNK3; format: cell-based
JNK3 [8] = molecular target: T5, JNK3; experiment: JNK3 kinase (intrinsic ATPase, Kinase-Glo) assay; format: biochemical; details: Table 3a; read-out: Kd JNK3
JNK1 [9] = molecular target: T6, JNK1; experiment: JNK1 kinase (intrinsic ATPase, Kinase-Glo) assay; format: biochemical
Method: JNK1, JNK2, and JNK3 hydrolyze ATP to ADP without any peptide substrates. This allows a very robust and fast endpoint assay where the remaining concentration of ATP is measured (BMG ClarioStar Plus plate reader) using the Kinase-Glo Assay kit from Promega (V6711). A luminescence signal is measured, which is produced by the catalytic conversion of beetle luciferin to oxyluciferin by luciferase. Potential inhibition of luciferase (i.e., false negatives) is easily detected, because assays without kinase are always included, and less ATP than is present in this control reaction could also indicate an inhibition of luciferase, which can be excluded by a counter screen with only luciferase.
as §1, with “The assay was performed using 10 μM ATP, 0.02% Tween-20, kinase buffer from Cell Signaling (#9802) in white 384-well plates.” left out

[10] = system: 12Z endometriotic epithelial cells; experiment: IL-1β-stimulated pro-inflammatory gene expression (qPCR) in 12Z cells; format: cell-based, human; details: relative to bentamapimod
Source text: These studies indicate that NanoBRET assays are an innovative technical platform to measure target engagement of CDD JNK inhibitors with the target JNK1, JNK2 or JNK3. As further evidence that JNK inhibitors address disease-relevant endpoints, biological responses of JNK inhibitors are provided herein, as measured in target tissue cellular models. 12Z immortalized endometriotic epithelial cells and patient-derived endometriotic stromal cells have been cultured with reference compound bentamapimod, CDD-2628, and CDD-2728. To exemplify the effects of CDD-2628 and CDD-2728 in the endometrial cell cultures, gene expression was measured using qPCR (expressed as fold-change relative to GAPDH, a housekeeping gene that is not affected by culture treatment effects) that reflect synthesis of inflammatory lipids (PTGS2), transformation of cells to a more migration and invasive potential (MMP-3) and chemoattractant cytokines to recruit pro-inflammatory immune cells (IL-6, IL-8).
In the culture systems employed in FIGS. 12A-12J, FIGS. 13A-13B, FIGS. 14A-14H, FIGS. 15A-15H, and FIGS. 16A-16F, the treatment of cells with IL-1β is used to mimic the peritoneal environment where IL-1β is most frequently measured at higher concentrations in patients with endometriosis (0.1 ng/mL-1 ng/mL) than in unaffected women (<0.01 ng/mL). The use of IL-1β to mimic the pro-inflammatory environment is a common method in cellular assays for endometriosis research. Although the concentrations of IL-1β in these cell cultures are higher than measured in peritoneal fluid, there are multiple other pro-inflammatory cytokines in peritoneal fluid that contribute to the pro-inflammatory environment.
Specifically, 12Z cells were plated at a density of 1×10^5 cells/well in a 12-well tissue culture plate, serum-starved overnight (17-18 h), pre-treated with vehicle (DMSO) or JNK inhibitor for 30 minutes, then stimulated with 10 ng/ml IL-1β in the presence or absence of the JNK inhibitors for 6 hours. After the 6-hour treatment, mRNA was extracted from the cells using the Qiagen RNEasy mini isolation kit and […] of mRNA was reverse transcribed into cDNA using the qScript cDNA Supermix (Quanta Biosciences). cDNA was amplified using SYBR Green Master Mix (Applied Biosystems) with quantitative Real Time PCR (BioRad CFX) using pre-designed and validated primers specific for genes encoding IL6, IL8, PTGS2/COX2, and MMP3 (BioRad). Relative quantification of these specific genes was calculated by the ΔΔCt method, normalizing their abundance relative to the internal housekeeping gene, GAPDH, followed by quantification relative to the vehicle-treated cells. Statistical analyses and visualizations were performed using a One Way ANOVA with a Tukey's multiple comparison post-hoc test on GraphPad Prism version 9.

[11] = system: immortalized human endometriotic epithelial cells (iHEEC); experiment: Phosphorylation of JNK and Jun in iHEEC; format: cell-based
Source text: FIG. 26A depicts the effects of CDD-2728 and CDD-3013 on phosphorylation of the JNK enzyme itself (i.e., representing MEK4 inhibition) and phosphorylation of pSer63 and pSer73 on the transcription factor Jun in immortalized human endometriotic epithelial cells (iHEEC). The HEEC cells are a well characterized cell line that are relevant for the evaluation of inflammatory endpoints and measures of epithelial-to-mesenchymal transitions (EMT). […] This is consistent with the potency relationships of CDD-2728 relative to bentamapimod observed in cytokine gene expression described above in iHEEC cells and primary human stromal endometriotic cells. […] SP600125 has been frequently described as a poorly-selective JNK-I but in this context provides additional confirmation of inhibition of the JNK target kinase for CDD-2728. […] This adds further support to the critical role of JNK-1 to the therapeutic effect of the JNK inhibitors of the disclosure.

T6 sequence (P45983 whole entry): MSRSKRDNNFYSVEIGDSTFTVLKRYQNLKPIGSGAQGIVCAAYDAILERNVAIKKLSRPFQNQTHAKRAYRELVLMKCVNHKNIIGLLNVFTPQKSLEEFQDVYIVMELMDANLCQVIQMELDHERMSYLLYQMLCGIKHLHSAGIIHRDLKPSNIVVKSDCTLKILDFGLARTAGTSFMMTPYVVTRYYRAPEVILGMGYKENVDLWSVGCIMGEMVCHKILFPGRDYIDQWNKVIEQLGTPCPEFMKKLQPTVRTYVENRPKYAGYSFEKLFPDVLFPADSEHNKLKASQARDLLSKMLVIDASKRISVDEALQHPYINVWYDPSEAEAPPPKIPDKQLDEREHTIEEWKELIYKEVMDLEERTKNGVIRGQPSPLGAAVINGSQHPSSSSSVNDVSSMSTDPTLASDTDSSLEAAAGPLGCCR
T4 sequence (P45984 whole entry): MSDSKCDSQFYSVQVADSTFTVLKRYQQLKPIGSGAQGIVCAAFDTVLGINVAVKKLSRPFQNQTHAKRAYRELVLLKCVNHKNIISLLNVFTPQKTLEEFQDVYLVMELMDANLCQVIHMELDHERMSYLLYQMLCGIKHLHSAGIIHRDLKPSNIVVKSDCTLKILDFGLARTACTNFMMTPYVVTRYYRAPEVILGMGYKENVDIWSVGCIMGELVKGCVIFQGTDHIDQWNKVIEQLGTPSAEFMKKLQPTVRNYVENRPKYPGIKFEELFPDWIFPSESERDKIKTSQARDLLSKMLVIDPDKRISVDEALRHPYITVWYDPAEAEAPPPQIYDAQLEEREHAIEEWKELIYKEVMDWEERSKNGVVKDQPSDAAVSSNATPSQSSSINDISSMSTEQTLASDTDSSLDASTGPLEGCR
T5 sequence (P53779 whole entry): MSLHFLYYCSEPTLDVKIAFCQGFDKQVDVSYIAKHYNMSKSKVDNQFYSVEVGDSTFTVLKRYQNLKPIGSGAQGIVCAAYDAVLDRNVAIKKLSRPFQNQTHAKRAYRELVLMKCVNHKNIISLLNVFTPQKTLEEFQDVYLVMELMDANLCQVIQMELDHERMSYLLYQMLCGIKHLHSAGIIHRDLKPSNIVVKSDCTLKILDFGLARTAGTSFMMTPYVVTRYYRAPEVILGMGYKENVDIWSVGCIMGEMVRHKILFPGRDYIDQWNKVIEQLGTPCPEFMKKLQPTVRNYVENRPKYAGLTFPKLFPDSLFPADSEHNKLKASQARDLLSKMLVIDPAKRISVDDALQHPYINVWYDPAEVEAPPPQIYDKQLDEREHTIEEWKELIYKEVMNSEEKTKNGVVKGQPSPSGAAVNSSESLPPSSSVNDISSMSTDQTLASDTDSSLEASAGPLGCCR
T2 sequence (Q8NEB9 whole entry): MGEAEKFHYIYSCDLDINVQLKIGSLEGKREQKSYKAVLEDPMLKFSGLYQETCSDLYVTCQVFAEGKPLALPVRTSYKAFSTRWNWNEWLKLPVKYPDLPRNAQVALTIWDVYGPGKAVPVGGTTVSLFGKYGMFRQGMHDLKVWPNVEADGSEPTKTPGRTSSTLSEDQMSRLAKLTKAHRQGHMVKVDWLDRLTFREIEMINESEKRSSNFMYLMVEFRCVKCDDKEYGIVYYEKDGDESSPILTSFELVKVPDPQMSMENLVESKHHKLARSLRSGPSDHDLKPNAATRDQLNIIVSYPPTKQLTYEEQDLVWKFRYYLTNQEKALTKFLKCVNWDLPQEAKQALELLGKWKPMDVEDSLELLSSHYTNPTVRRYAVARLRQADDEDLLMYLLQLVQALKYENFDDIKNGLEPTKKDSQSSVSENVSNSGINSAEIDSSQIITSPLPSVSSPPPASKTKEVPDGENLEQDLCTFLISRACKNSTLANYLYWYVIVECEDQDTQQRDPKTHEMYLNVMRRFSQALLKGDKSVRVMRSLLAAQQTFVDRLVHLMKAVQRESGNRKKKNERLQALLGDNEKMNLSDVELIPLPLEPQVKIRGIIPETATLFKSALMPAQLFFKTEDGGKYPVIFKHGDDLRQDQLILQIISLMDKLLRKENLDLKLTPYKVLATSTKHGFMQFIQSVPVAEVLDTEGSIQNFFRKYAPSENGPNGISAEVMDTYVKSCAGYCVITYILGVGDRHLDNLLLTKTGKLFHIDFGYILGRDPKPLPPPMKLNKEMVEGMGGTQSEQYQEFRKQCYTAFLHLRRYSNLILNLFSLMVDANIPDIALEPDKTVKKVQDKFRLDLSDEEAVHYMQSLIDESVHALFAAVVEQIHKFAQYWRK
T3 sequence (P49674 whole entry): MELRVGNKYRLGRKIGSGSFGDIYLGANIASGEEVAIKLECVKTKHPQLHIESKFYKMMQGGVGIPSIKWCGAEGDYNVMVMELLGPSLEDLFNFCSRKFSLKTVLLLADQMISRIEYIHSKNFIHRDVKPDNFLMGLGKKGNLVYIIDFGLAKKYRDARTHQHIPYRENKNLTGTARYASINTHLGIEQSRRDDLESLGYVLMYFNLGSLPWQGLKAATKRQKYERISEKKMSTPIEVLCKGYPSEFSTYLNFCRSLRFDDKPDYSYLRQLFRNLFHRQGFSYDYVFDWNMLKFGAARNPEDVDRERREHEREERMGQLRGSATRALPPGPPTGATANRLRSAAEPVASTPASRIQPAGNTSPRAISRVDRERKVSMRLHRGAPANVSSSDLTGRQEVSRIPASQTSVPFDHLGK

SMILES | Kd (MEK4) | Kd (hVPS34) | Kd (CSNK1E) | Kd (JNK2 [1]) | solubility (Solubility) | half-life [2] | half-life [3] | Kd (JNK3 [4]) | IC50 (JNK2 [5]) | IC50 (JNK1 [6]) | IC50 (JNK3 [7]) | Kd (JNK3 [8]) | Kd (JNK1 [9]) | IL-6 expression [10] | IL-8 expression [10] | MMP-3 expression [10] | PTGS2 expression [10] | phosphorylation of JNK1 (P46) and JNK2 (P54) [11] | phosphorylation of Jun at pSer63 and pSer73 [11]
COc1ccc(NC(=O)c2cc3c(-c4cnc5[nH]ccc5c4)cccc3s2)cc1C(=O)N(C)C [CDD-2628, N-(3-(dimethylcarbamoyl)-4-methoxyphenyl)-4-(1H-pyrrolo[2,3-b]pyridin-5-yl)benzo[b]thiophene-2-carboxamide] |  |  |  | 1.6 ± 0.17 nM | 7.4 µM (≈ 3.48 µg/mL) | 40.6 min | 98.4 min |  | 520 nM | 500 nM | 566 nM | 0.52 ± 0.05 nM | 1.83 ± 0.26 nM | concentration-dependent decreases | improved potency; also recorded: more effective than bentamapimod | improved potency; also recorded: more effective than bentamapimod | concentration-dependent decreases |  | 
O=C(Nc1cncnc1)c1cc2c(-c3cnc4[nH]ccc4c3)cccc2s1 [CDD-3015, N-(pyrimidin-5-yl)-4-(1H-pyrrolo[2,3-b]pyridin-5-yl)benzo[b]thiophene-2-carboxamide] |  |  |  | 6.84 ± 0.81 nM | 0.3 µM (≈ 0.111 µg/mL) | 46.4 min | 214 min |  | 3200 nM | 3500 nM | 8200 nM | 3.18 ± 0.14 nM | 2.34 ± 0.3 nM |  |  |  |  |  | 
Oc1c2ccccc2c2c3c(cccc13)N=N2 [SP600125, reference compound] |  |  |  |  |  |  |  |  |  |  |  |  |  |  |  |  |  | MEK4-dependent phosphorylation of JNK1 and JNK2 | inhibits pSer63 and pSer73 Jun

Now from value to molecule, other results behind:

Kd (MEK4) | Kd (hVPS34) | Kd (CSNK1E) | Kd (JNK2 [1]) | solubility (Solubility) | half-life [2] | half-life [3] | Kd (JNK3 [4]) | IC50 (JNK2 [5]) | IC50 (JNK1 [6]) | IC50 (JNK3 [7]) | Kd (JNK3 [8]) | Kd (JNK1 [9]) | SMILES | IL-6 expression [10] | IL-8 expression [10] | MMP-3 expression [10] | PTGS2 expression [10] | phosphorylation of JNK1 (P46) and JNK2 (P54) [11] | phosphorylation of Jun at pSer63 and pSer73 [11]
483 nM | 776 nM | 3.18 µM | 1.7 ± 0.12 nM | 134 µM (≈ 54.7 µg/mL) | 33.1 min | 30.3 min | 1.38 nM | 990 nM | 2200 nM | 2000 nM | 1.38 ± 0.21 nM | 0.39 ± 0.11 nM | CNCc1ccc(NC(=O)c2ccn3ncc(-c4cncc5ccccc45)c3c2)cc1 [CDD-2347, 3-(isoquinolin-4-yl)-N-(4-((methylamino)methyl)phenyl)pyrazolo[1,5-a]pyridine-5-carboxamide] |  |  |  |  |  | 
 |  |  | 1.81 ± 0.19 nM | 1.1 µM (≈ 0.546 µg/mL) | 59 min | 81.6 min |  | 161 nM | 172 nM | 119 nM | 2.62 ± 0.28 nM | 0.29 ± 0.13 nM | O=C(Nc1ccc(O)c(C(=O)N2CCCCC2)c1)c1cc2c(-c3cnc4[nH]ccc4c3)cccc2s1 [CDD-2634, N-(4-hydroxy-3-(piperidine-1-carbonyl)phenyl)-4-(1H-pyrrolo[2,3-b]pyridin-5-yl)benzo[b]thiophene-2-carboxamide] |  | more potent inhibitors of IL-8 expression than bentamapimod |  |  |  | 
 |  |  | 3.14 ± 0.33 nM | 3.8 µM (≈ 1.74 µg/mL) | 55.5 min | 225 min |  | 1100 nM | 1000 nM | 2200 nM | 1.03 ± 0.07 nM | 0.27 ± 0.08 nM | CN(C)C(=O)c1cc(NC(=O)c2nc3c(-c4cnc5[nH]ccc5c4)cccc3s2)ccc1O [CDD-2856, N-(3-(dimethylcarbamoyl)-4-hydroxyphenyl)-4-(1H-pyrrolo[2,3-b]pyridin-5-yl)benzo[d]thiazole-2-carboxamide] |  |  |  |  | inhibits the upstream phosphorylation of JNK1 and JNK2 | inhibits phosphorylation more effectively than Tanzisertib
 |  |  | 5.74 ± 0.5 nM | 0.4 µM (≈ 0.187 µg/mL) | 61.4 min | 176 min |  | 738 nM | 789 nM | 960 nM | 2.92 ± 0.21 nM | 0.58 ± 0.08 nM | O=C(Nc1ccc(O)c(C(=O)N2CCC2)c1)c1cc2c(-c3cnc4[nH]ccc4c3)cccc2s1 [CDD-3014, N-(3-(azetidine-1-carbonyl)-4-hydroxyphenyl)-4-(1H-pyrrolo[2,3-b]pyridin-5-yl)benzo[b]thiophene-2-carboxamide] |  |  |  |  |  | 
